Literature values, collected in patent publication US20170364630A1, “IDENTIFICATION OF CELLULAR ANTIMICROBIAL DRUG TABLETS THROUGH INTERACTOME ANALYSIS” (Vanderbilt University, priority 2014, published 2017).
Values after ≈ are worked out from the molar mass of the structure shown.

Experiments:
hepatitis C virus (HCV) = conditions: cell-based quantitative high-throughput screening, He et al. 2015; read-out: EC50, anti-HCV activity
HIV-1 [1] = conditions: approximate value, Guendel et al. 2010; read-out: IC50, inhibitor of HIV-1
HIV-1 [2] = conditions: Szlavik et al. 2004
[3] = system: poliovirus-infected HeLa cells
human enterovirus 71 = conditions: human enterovirus 71-infected mice
calcium channel protein = conditions: Fish and Antzelevitch 2004
[4] = system: Ebola-related genes (MERTK, FURIN, TYRO3, CTSB, NADK, POLH, TAPT1); conditions: CMap data, FIG. 8
[5] = target: HIV-1 reverse transcriptase (Human immunodeficiency virus type 1 group M subtype B, UniProt P04585); conditions: Tan et al. 1991; read-out: IC50 against the HIV-1 reverse transcriptase

## CN1CCCN(C(c2ccccc2)c2ccc(Cl)cc2)CC1 (stereo not drawn) [homochlorcyclizine]
Hepatitis C virus (HCV)
  EC50: 0.47 µM

## Clc1ccc(Cn2c(CN3CCCC3)nc3ccccc32)cc1 [clemizole]
Hepatitis C virus (HCV)
  EC50: 7.15 µM

## O=C1Cc2c([nH]c3ccc([N+](=O)[O-])cc23)-c2ccccc2N1 [alsterpaullone]
HIV-1 [1]
  IC50: ~0.15 µM

## O[C@H]1[C@H]2c3cc4c(cc3CN3CCC(=C[C@@H]1O)[C@H]23)OCO4 [lycorine]
HIV-1 [2]
  IC50, anti-HIV-1 activity in MT4 cells: 0.4 µg/mL (≈ 1.39 µM)
[3]
  Effect on viral protein synthesis: inhibits viral protein synthesis
Human enterovirus 71
  Effect on mortality of infected mice: reduces mortality

## CC[C@H]1[C@@H]2C[C@H]3[C@@H]4N(C)c5ccccc5[C@]45C[C@@H]([C@H]2[C@H]5O)N3[C@@H]1O [ajmaline]
Calcium channel protein
  Concentration exerting comparable pharmacological activity by inhibiting calcium channel protein activity: ≤ 20 μM
[4]
  Up-regulated host genes following drug treatment: MERTK, FURIN, TYRO3, FURIN, and CTSB

## CN1C(C(=O)Nc2ccccn2)=C(O)c2ccccc2S1(=O)=O [piroxicam]
[4]
  Up-regulated host genes following drug treatment: FURIN and MERTK

## C[n+]1cc2c3c(ccc2c2ccc4cc5c(cc4c21)OCO5)OCO3 [sanguinarine nitrate]
[5]
  IC50: 150 to 451 µM

## CC1(C)S[C@@H]2[C@H](NC(=O)[C@H](NC(=O)N3CCNC3=O)c3ccccc3)C(=O)N2[C@H]1C(=O)O [azlocillin]
[4]
  Down-regulated host genes following drug treatment: TAPT1 and TYRO3
  Up-regulated host genes following drug treatment: NADK and POLH
